How the values were obtained:
H1 = biological target: T1, H1 (Cavia porcellus, UniProt P31389); experiment: Guinea-pig isolated trachea (histamine concentration effect curves); conditions: guinea-pig tracheal rings; histamine E/[A] curve after 60 minutes incubation with test compound
T1 construct: the trachea was cut into six ring segments each three cartilage bands wide and then suspended in 20 ml organ baths; from tissue; host or cells: guinea-pig isolated trachea (Dunkin-Hartley)
Method: Guinea-pig Isolated Trachea
(See for example, Harrison, R. W. S., Carswell, H. & Young, J. M. (1984) European J. Pharmacol., 106, 405-409.)
Male albino Dunkin-Hartley guinea-pigs (250 g) were killed by cervical dislocation and the whole trachea removed. After clearing the adherent connective tissue, the trachea was cut into six ring segments each three cartilage bands wide and then suspended in 20 ml organ baths containing Krebs-Henseleit solution of the following composition (MM): NaCl 117.6, NaH2PO4 0.9, NaHCO3 25.0, MgSO4 1.2, KCl 5.4, CaCl2 2.6 and glucose 11.1. The buffer was maintained at 37° C. and gassed with 5% CO2 in oxygen. Indomethacin (2.8 μM) was added to the Krebs solution to prevent development of smooth muscle tone due to the synthesis of cyclo-oxygenase products. […] Changes in isometric force were recorded on 2-channel Sekonic flat bed chart recorders. […]
Contraction responses were recorded as a percentage of the first curve maximum. […]
Experimental E/[A] curve data were analysed for the purposes of estimating the potencies (p[A50] values) of histamine in the absence and presence of the test compound. Affinity (pA2) values of test compounds were subsequently calculated using the following equation: log(r−1)=log[B]+pA2 where r=[A]50 in presence of test compound/[A]50 in absence of antagonist and [B] is the concentration of test compound.

[1] = system: eotaxin mediated human eosinophil chemotaxis; experiment: Human eosinophil chemotaxis; format: cell-based; conditions: human eosinophils from peripheral blood; eotaxin 0.1 to 100 nM; 1 hr at 37° C.
Method: Human Eosinophil Chemotaxis
Human eosinophils were isolated from EDTA anticoagulated peripheral blood as previously described (Hansel et al., J. Immunol. Methods, 1991, 145, 105-110). The cells were resuspended at 10×10^6 ml^−1 in RPMI containing 200 IU/ml penicillin, 200 μg/ml streptomycin sulfate and supplemented with 10% HIFCS, at room temperature.
Eosinophils (700 μl) were pre-incubated for 15 mins at 37° C. with 7 μl of either vehicle or compound (100× required final concentration in 10% DMSO). The chemotaxis plate (ChemoTx, 3μ, pore, Neuroprobe) was loaded by adding 28 μl of a concentration of eotaxin (0.1 to 100 nM) containing a concentration of a compound according to the Examples or solvent to the lower wells of the chemotaxis plate. The filter was then placed over the wells and 25 μl of eosinophil suspension were added to the top of the filter. The plate was incubated for 1 hr at 37° C. in a humidified incubator with a 95% air/5% CO2 atmosphere to allow chemotaxis.
The medium, containing cells that had not migrated, was carefully aspirated from above the filter and discarded. The filter was washed once with phosphate buffered saline (PBS) containing 5 mM EDTA to remove any adherent cells. […] The number of eosinophils migrating was quantified according to the method of Strath et al., J. Immunol. […]

T1 sequence (P31389 whole entry): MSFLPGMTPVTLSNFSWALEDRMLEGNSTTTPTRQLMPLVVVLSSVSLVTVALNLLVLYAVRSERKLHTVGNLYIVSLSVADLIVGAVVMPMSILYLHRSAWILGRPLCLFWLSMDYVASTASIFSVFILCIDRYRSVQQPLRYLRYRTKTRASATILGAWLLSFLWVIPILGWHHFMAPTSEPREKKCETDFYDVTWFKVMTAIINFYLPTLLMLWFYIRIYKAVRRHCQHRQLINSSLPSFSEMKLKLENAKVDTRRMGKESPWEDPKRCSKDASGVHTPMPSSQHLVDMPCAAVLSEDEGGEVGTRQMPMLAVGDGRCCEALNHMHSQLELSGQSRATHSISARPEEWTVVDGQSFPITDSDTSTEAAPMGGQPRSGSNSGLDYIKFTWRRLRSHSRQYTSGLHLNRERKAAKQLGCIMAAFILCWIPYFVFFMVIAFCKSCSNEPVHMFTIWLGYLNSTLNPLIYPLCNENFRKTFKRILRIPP

With `Cc1ccc(S(=O)(=O)NC(=O)NCCN2CCC(Oc3ccc(Cl)c(Cl)c3)CC2)cc1` [Example 1, N-[[[2-[4-(3,4-dichlorophenoxy)-1-piperidinyl]ethyl]amino]carbonyl]-4-methyl-benzenesulfonamide] the melting point was 179.6 to 180.3 °C, the H1 antagonism (H1) was “H1 antagonist” and the “antagonism of the eotaxin mediated human eosinophil chemotaxis” value [1] was “antagonist”.
Work on `O=C(NS(=O)(=O)NCCCN1CCC(Oc2ccc(Cl)c(Cl)c2)CC1)c1ccccc1` [Example 18, N-benzoyl-N′-[3-[4-(3,4-dichlorophenoxy)-1-piperidinyl]propyl]-sulfamide] yielded a melting point of 93 to 106 °C.
`O=C(NS(=O)(=O)CCN1CCC(Oc2ccc(Cl)c(Cl)c2)CC1)c1ccccc1Cl` [Example 19, N-(2-Chlorobenzoyl)-4-(3,4-dichlorophenoxy)-1-piperidineethanesulfonamide] showed a melting point of 237 to 239 °C.
For `Cc1ccc(S(=O)(=O)NC(=O)CCN2CCC(Oc3ccc(Cl)c(Cl)c3)CC2)cc1` [Example 20, N-[3-[4-(3,4-dichlorophenoxy)-1-piperidinyl]-1-oxopropyl]4-methyl-benzenesulfonamide], the melting point was 177 to 179 °C.
